Measurements from PubChem BioAssay AID1259411 (Chemical Carcinogenesis Research Information System (CCRIS), 2018).
Active and inactive are the calls of the source. The rule behind the calls is not given here.

Tested on: rodent carcinogenicity bioassays, tumor incidence
Assay: CCRIS carcinogenicity studies
In short: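 NCI-built, expert-reviewed records of carcinogenicity and related test outcomes (mutagenicity, tumor promotion/inhibition) compiled from published and report sources, historical span 1985-2011, not updated.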

COP(=S)(OC)SCn1nnc2ccccc2c1=O
carcinogen call (Species: MOUSE, Strain/Sex: B6C3F1/FEMALE, Route: ORAL, Dose: 0, 62.5, 125 PPM IN DIET FOR 80 WK (STUDY DURATION: 92-93 WK), Dose: 0, 62.5, 125 PPM IN DIET FOR 80 WK (STUDY DURATION: 92-93 WK)): inactive; negative | carcinogen call (Species: MOUSE, Strain/Sex: B6C3F1/MALE, Route: ORAL, Dose: 0, 31.3, 62.5 PPM IN DIET FOR 80 WK (STUDY DURATION: 92-93 WK), Dose: 0, 31.3, 62.5 PPM IN DIET FOR 80 WK (STUDY DURATION: 92-93 WK)): inactive; negative | carcinogen call (Species: RAT, Strain/Sex: OSBORNE-MENDEL/FEMALE, Route: ORAL, Dose: 0, 62.5, 125 PPM IN DIET FOR 80 WK (STUDY DURATION: 114-115 WK), Dose: 0, 62.5, 125 PPM IN DIET FOR 80 WK (STUDY DURATION: 114-115 WK)): inactive; negative | carcinogen call (Species: RAT, Strain/Sex: OSBORNE-MENDEL/MALE, Route: ORAL, Dose: 0, 78, 156 PPM IN DIET FOR 80 WK (STUDY DURATION: 114-115 WK), Dose: 0, 78, 156 PPM IN DIET FOR 80 WK (STUDY DURATION: 114-115 WK), Tumor Site: Type of Lesion: THYROID GLAND: TUMOR, PANCREAS: ISLET CELL ADENOMA OR CARCINOMA): equivocal | carcinogen call (Species: Rat, Strain/Sex: Wistar/Female, Route: Oral, Dose: 0, 15, 45 ppm (vehicle= 1% DAB8 peanut oil) in feed for 24 mo., Dose: 0, 15, 45 ppm (vehicle= 1% DAB8 peanut oil) in feed for 24 mo.): inactive; negative; purity = 87.2% | carcinogen call (Species: Rat, Strain/Sex: Wistar/Male, Route: Oral, Dose: 0, 15, 45 ppm (vehicle= 1% DAB8 peanut oil) in feed for 24 mo., Dose: 0, 15, 45 ppm (vehicle= 1% DAB8 peanut oil) in feed for 24 mo.): inactive; negative; purity = 87.2%

COc1cc2c(c3c1c(=O)c1ccccc1n3C)C=CC(C)(C)O2
carcinogen call (Species: RAT, Strain/Sex: SPRAGUE-DAWLEY/FEMALE, Route: INTRAPERITONEAL, Dose: 0, 3.75, 7.5, 15 MG/KG FOR 52 WK (STUDY DURATION: 80-82 WK), Dose: 0, 3.75, 7.5, 15 MG/KG FOR 52 WK (STUDY DURATION: 80-82 WK), Tumor Site: Type of Lesion: MAMMARY GLAND: FIBROADENOMA, PERITONEAL CAVITY: SARCOMA OR FIBROSARCOMA OR MESOTHELIOMA): active; positive | carcinogen call (Species: RAT, Strain/Sex: SPRAGUE-DAWLEY/MALE, Route: INTRAPERITONEAL, Dose: 0, 3.75, 7.5, 15 MG/KG FOR 51-52 WK (STUDY DURATION: 51-82 WK), Dose: 0, 3.75, 7.5, 15 MG/KG FOR 51-52 WK (STUDY DURATION: 51-82 WK), Tumor Site: Type of Lesion: MUSCULOSKELETAL SYSTEM: OSTEOSARCOMA, PERITONEAL CAVITY: SARCOMA OR FIBROSARCOMA OR MESOTHELIOMA): active; positive

Cc1cccc2cccnc12
carcinogen call (Species: MOUSE, Strain/Sex: CD-1/FEMALE, Route: INTRAPERITONEAL, Dose: 0, 0.25, 0.5, 1.0 UMOL IN DMSO TO NEWBORN MICE ON DAYS 1, 8 AND 15 OF LIFE RESPECTIVELY (TOTAL DOSE: 1.75 UMOL) (STUDY D, Dose: 0, 0.25, 0.5, 1.0 UMOL IN DMSO TO NEWBORN MICE ON DAYS 1, 8 AND 15 OF LIFE RESPECTIVELY (TOTAL DOSE: 1.75 UMOL) (STUDY D): inactive; negative | carcinogen call (Species: MOUSE, Strain/Sex: CD-1/MALE, Route: INTRAPERITONEAL, Dose: 0, 0.25, 0.5, 1.0 UMOL IN DMSO TO NEWBORN MICE ON DAYS 1, 8 AND 15 OF LIFE RESPECTIVELY (TOTAL DOSE: 1.75 UMOL) (STUDY D, Dose: 0, 0.25, 0.5, 1.0 UMOL IN DMSO TO NEWBORN MICE ON DAYS 1, 8 AND 15 OF LIFE RESPECTIVELY (TOTAL DOSE: 1.75 UMOL) (STUDY D): inactive; negative | carcinogen call (Species: RAT, Strain/Sex: F344/MALE,FEMALE, Route: ORAL, Dose: 0.05% IN DIET FOR 2 YR): inactive; negative | carcinogen call (Species: RAT, Strain/Sex: SPRAGUE-DAWLEY/MALE, Route: SUBCUTANEOUS, Dose: 0, 200 UMOL/KG IN DMSO INTO SUPRASCAPULAR AREA ON DAY 1 OF LIFE FOLLOWED BY 0, 100 UMOL 1/WK AT WK 2-7 THEN 0, 200 UMOL/, Dose: 0, 200 UMOL/KG IN DMSO INTO SUPRASCAPULAR AREA ON DAY 1 OF LIFE FOLLOWED BY 0, 100 UMOL 1/WK AT WK 2-7 THEN 0, 200 UMOL/): inactive; negative | carcinogen call (Species: SPRAGUE-DAWLEY/MALE, Strain/Sex: SPRAGUE-DAWLEY/FEMALE, Route: SUBCUTANEOUS, Dose: 0, 200 UMOL/KG IN DMSO INTO SUPRASCAPULAR AREA ON DAY 1 OF LIFE FOLLOWED BY 0, 100 UMOL 1/WK AT WK 2-7 THEN 0, 200 UMOL/, Dose: 0, 200 UMOL/KG IN DMSO INTO SUPRASCAPULAR AREA ON DAY 1 OF LIFE FOLLOWED BY 0, 100 UMOL 1/WK AT WK 2-7 THEN 0, 200 UMOL/): inactive; negative

CCC(=O)OCCCCCC(C)C
carcinogen call (Species: MOUSE, Strain/Sex: C3H/MALE, Route: DERMAL, Dose: 25 µL (19% W/V IN 70:30 ACETONE/HEPTANE APPLIED TO BACK 3 D/WK FOR LIFE (STUDY DURATION: LIFE)): inactive; negative

C/C=C/c1ccc(O)c(OC)c1
carcinogen call (Species: Mouse, Strain/Sex: B6C3F1 /Female (50/Group), Route: Oral, Dose: 0, 75, 150, 300 mg/kg in corn oil, by gavage, 5 d/wk for 2 yr, Dose: 0, 75, 150, 300 mg/kg in corn oil, by gavage, 5 d/wk for 2 yr): inactive; negative. (authors describe as equivocal evidence based on incidence of histiocy | carcinogen call (Species: Mouse, Strain/Sex: B6C3F1 /Male (50/Group), Route: Oral, Dose: 0, 75, 150, 300 mg/kg in corn oil, by gavage, 5 d/wk for 2 yr, Dose: 0, 75, 150, 300 mg/kg in corn oil, by gavage, 5 d/wk for 2 yr, Tumor Site: Type of Lesion: Liver: hepatocellular adenoma (24/50, 35/50, 37/50, 33/50), hepatocellular carcinoma (8/50, 18/50, 19/50, 18/50), hepato, Tumor Site: Type of Lesion: Liver: hepatocellular adenoma (24/50, 35/50, 37/50, 33/50), hepatocellular carcinoma (8/50, 18/50, 19/50, 18/50), hepato): active; positive. (authors describe as clear evidence) | carcinogen call (Species: Rat, Strain/Sex: F344/N / Female (50/Group), Route: Oral, Dose: 0, 75, 150, 300 mg/kg in corn oil, by gavage, 5 d/wk for 2 yr, Dose: 0, 75, 150, 300 mg/kg in corn oil, by gavage, 5 d/wk for 2 yr): inactive; negative | carcinogen call (Species: Rat, Strain/Sex: F344/N / Male (50/Group), Route: Oral, Dose: 0, 75, 150, 300 mg/kg in corn oil, by gavage, 5 d/wk for 2 yr, Dose: 0, 75, 150, 300 mg/kg in corn oil, by gavage, 5 d/wk for 2 yr): inactive; negative. (authors describe as equivocal evidence based on incidence of thymoma,

CCCCN(C)N=O
carcinogen call (Species: HAMSTER, Strain/Sex: SYRIAN/FEMALE, Route: GAVAGE, Dose: 0, 2.5, 5 MG/KG 1/WK FOR 23-30 WK (TOTAL DOSE: 0; 0.65; 1.0 MMOL) (STUDY DURATION: LIFETIME), Dose: 0, 2.5, 5 MG/KG 1/WK FOR 23-30 WK (TOTAL DOSE: 0; 0.65; 1.0 MMOL) (STUDY DURATION: LIFETIME), Tumor Site: Type of Lesion: LIVER: HEPATOCELLULAR ADENOMA, LUNG: ALVEOLAR/BRONCHIAL ADENOMA, NASAL MUCOSA: CARCINOMA, ADENOMA, FORESTOMACH: SQUAMOUS, Tumor Site: Type of Lesion: LIVER: HEPATOCELLULAR ADENOMA, LUNG: ALVEOLAR/BRONCHIAL ADENOMA, NASAL MUCOSA: CARCINOMA, ADENOMA, FORESTOMACH: SQUAMOUS): active; positive | carcinogen call (Species: HAMSTER, Strain/Sex: SYRIAN/MALE, Route: GAVAGE, Dose: 0, 2.5, 5 MG/KG 1/WK FOR 23-30 WK (TOTAL DOSE: 0; 0.65; 1.0 MMOL) (STUDY DURATION: LIFETIME), Dose: 0, 2.5, 5 MG/KG 1/WK FOR 23-30 WK (TOTAL DOSE: 0; 0.65; 1.0 MMOL) (STUDY DURATION: LIFETIME), Tumor Site: Type of Lesion: LIVER: HEPATOCELLULAR ADENOMA, HEMANGIOSARCOMA, LUNG: ALVEOLAR/BRONCHIAL ADENOMA, NASAL MUCOSA: CARCINOMA, ADENOMA, FORE, Tumor Site: Type of Lesion: LIVER: HEPATOCELLULAR ADENOMA, HEMANGIOSARCOMA, LUNG: ALVEOLAR/BRONCHIAL ADENOMA, NASAL MUCOSA: CARCINOMA, ADENOMA, FORE): active; positive | carcinogen call (Species: RAT, Strain/Sex: F344/FEMALE, Route: INTRAVESICULAR, Dose: 0, 3 MG IN 0.2 ML ETHANOL: DEIONIZED WATER (1:3) 2/WK FOR 17 WK (TOTAL DOSE 0.9 MMOL) (STUDY DURATION: LIFESPAN), Tumor Site: Type of Lesion: ESOPHAGUS: TUMOR, LIVER: HEMANGIOSARCOMA): active; positive

O[C@@H]1C=Cc2c(cc3ccc4cccc5ccc2c3c45)[C@H]1O
carcinogen call (Species: FISH, Strain/Sex: RAINBOW TROUT/MALE,FEMALE, Route: INJECTION, Dose: 0, 0.5, 2, 5 UG INJECTED INTO NEWLY HATCHED SAC-FRY (STUDY DURATION: 9 MO), Dose: 0, 0.5, 2, 5 UG INJECTED INTO NEWLY HATCHED SAC-FRY (STUDY DURATION: 9 MO), Tumor Site: Type of Lesion: LIVER: TUMOR): active; positive
